Patent US8791132B2, “Compounds and methods for treatment of hypertension” (Medivation Technologies, Inc., priority 2011, dated 2014)
Where “and” joins values, the source holds several entries; their conditions need not be identical. Equal entries are not always repeated. Where two headings read alike, the source gives them in different places. Each block holds one molecule with its values, some of them ahead of it.

What was measured:
[1] = target: T1, human recombinant adrenergic α2A receptor (Homo sapiens, UniProt P08913); assay: Radioligand binding, adrenergic α2A ([3H]MK-912)
T1 construct: expressed in transfected cells; host or cells: insect Sf9 cells
T1 sequence (P08913 1-465): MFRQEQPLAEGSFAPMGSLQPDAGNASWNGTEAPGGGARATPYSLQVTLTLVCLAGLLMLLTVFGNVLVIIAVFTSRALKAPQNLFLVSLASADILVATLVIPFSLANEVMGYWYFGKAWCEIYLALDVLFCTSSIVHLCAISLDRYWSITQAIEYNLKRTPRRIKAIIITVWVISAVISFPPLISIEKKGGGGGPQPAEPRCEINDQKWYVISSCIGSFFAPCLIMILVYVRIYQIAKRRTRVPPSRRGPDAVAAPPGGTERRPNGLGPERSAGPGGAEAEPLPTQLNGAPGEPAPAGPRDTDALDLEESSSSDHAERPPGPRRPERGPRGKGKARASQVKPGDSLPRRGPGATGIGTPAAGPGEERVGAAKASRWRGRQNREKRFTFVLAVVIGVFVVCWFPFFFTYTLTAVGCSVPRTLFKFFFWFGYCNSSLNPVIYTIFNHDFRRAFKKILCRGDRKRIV
Summary of the method: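 Receptor expressed in Sf9 cells, in 50 mM Tris-HCl pH 7.4, 12.5 mM MgCl2, 2 mM EDTA; compounds incubated with 1 nM [3H]MK-912 for 60 min at 25 °C.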

[2] = target: T2, human recombinant adrenergic α2B receptor (Homo sapiens, UniProt P18089); assay: Radioligand binding, adrenergic α2B ([3H]Rauwolscine); conditions: for Ki: read-out: Ki α2B; for Percentage inhibition of ligand binding, Adrenergic α2B (0.03 μM) / Percentage inhibition of ligand binding, Adrenergic α2B: 0.03 µM
T2 construct: expressed in transfected cells; host or cells: CHO-K1
T2 sequence (P18089 1-450): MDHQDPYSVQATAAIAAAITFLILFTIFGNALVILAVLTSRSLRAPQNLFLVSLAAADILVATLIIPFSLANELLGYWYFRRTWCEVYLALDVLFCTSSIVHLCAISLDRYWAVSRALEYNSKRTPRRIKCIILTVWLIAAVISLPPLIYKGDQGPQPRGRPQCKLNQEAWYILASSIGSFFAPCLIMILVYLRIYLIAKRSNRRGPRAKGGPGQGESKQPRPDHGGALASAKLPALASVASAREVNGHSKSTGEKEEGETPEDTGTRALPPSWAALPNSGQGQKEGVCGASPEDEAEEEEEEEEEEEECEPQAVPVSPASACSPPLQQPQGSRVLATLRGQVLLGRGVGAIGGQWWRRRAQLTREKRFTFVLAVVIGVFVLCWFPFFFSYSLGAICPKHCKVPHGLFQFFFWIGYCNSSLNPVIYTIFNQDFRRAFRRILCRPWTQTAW
Summary of the method: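 Membranes from CHO-K1 cells expressing human recombinant α2B, in 50 mM Tris-HCl pH 7.4, 12.5 mM MgCl2, 1 mM EDTA, 0.2% BSA, incubated with compound and 2.5 nM [3H]Rauwolscine, 60 min, 25 °C.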

[3] = target: T3, rat adrenergic α1B receptor (Rattus norvegicus, UniProt P15823); assay: Radioligand binding, adrenergic α1B ([3H]Prazosin); conditions: for Percentage inhibition of ligand binding, Adrenergic α1B / Percentage inhibition of ligand binding, Adrenergic α1B (0.1 μM): 0.1 µM
T3 construct: rat adrenergic α1B receptor obtained from Wistar Rat liver; from tissue; host or cells: Wistar rat liver
T3 sequence (P15823 1-515): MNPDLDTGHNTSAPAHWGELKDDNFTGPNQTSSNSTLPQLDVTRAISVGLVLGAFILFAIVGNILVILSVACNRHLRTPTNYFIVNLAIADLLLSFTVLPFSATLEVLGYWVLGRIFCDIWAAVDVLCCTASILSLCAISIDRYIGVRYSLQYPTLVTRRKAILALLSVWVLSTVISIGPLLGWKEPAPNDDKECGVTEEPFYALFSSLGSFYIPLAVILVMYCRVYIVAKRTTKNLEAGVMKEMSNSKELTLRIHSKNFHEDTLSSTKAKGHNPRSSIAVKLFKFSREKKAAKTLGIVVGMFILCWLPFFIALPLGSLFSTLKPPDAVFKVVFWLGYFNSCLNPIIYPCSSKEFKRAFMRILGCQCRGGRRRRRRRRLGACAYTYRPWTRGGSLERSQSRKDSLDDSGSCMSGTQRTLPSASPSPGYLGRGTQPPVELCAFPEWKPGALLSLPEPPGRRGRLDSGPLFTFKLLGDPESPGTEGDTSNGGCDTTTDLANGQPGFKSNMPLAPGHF
Summary of the method: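 Rat α1B receptor from Wistar rat liver was incubated with 0.25 nM [3H]prazosin for 60 min at 25 °C in 50 mM Tris-HCl, pH 7.4, 0.5 mM EDTA. Non-specific binding was defined with 10 μM phentolamine. Bound radioligand was measured by filtration and counting, reported as percent inhibition of specific binding.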

[4] = read-out: Percentage inhibition of ligand binding, Adrenergic α2A (0.1 μM), compound at 0.1 μM, [3H]MK-912, repeat datapoints each shown
[5] = compound at 0.03 μM, [3H]Rauwolscine, repeat datapoints each shown
[6] = read-out: Percentage inhibition of ligand binding, Adrenergic α2B (0.03 μM), compound at 0.03 μM, [3H]Rauwolscine, repeat datapoints each shown
[7] = read-out: Percentage inhibition of ligand binding, Adrenergic α1B (0.1 μM), compound at 0.1 μM, [3H]Prazosin, repeat datapoints each shown
[8] = compound at 0.1 μM, [3H]MK-912, repeat assays, each datapoint shown, 0.1 µM
[9] = compound at 0.03 μM, [3H]Rauwolscine, repeat assays, each datapoint shown
[10] = compound at 0.1 μM, [3H]Prazosin, repeat assays, each datapoint shown
[11] = compound at 0.1 μM, [3H]MK-912, repeat datapoints each shown, 0.1 µM
[12] = compound at 0.1 μM, [3H]Prazosin, repeat datapoints each shown
[13] = 0.1 μM compound, read-out: Percentage inhibition of ligand binding, Adrenergic α2A
[14] = 0.03 μM compound, read-out: Percentage inhibition of ligand binding, Adrenergic α2B
[15] = 0.1 μM compound, read-out: Percentage inhibition of ligand binding, Adrenergic α1B

Structure (SMILES): CC(O)(Cn1c2c(c3cc(Cl)cnc31)C1CCCN1CC2)c1cccnc1 (single isomer, unassigned) [IV-210b]
Percentage inhibition of ligand binding, Adrenergic α2A (0.1 μM) [1, 11]: 8%
Percentage inhibition of ligand binding, Adrenergic α2B (0.03 μM) [2, 5]: 29%
Percentage inhibition of ligand binding, Adrenergic α1B (0.1 μM) [3, 12]: 10%

Structure (SMILES): Cc1ccc2c(c1)c1c(n2CC(O)c2ccnc(C(=O)O)c2)CCN2CCCC12 (centres unmarked) [compound 168]
inhibition at 0.1 µM [1, 4]: 16%
inhibition at 0.03 µM [2, 6]: 32%
inhibition at 0.1 µM [3, 7]: 23%

Structure (SMILES): CC(O)(Cn1c2c(c3cc(Cl)cnc31)CNCC2)c1ccncc1 (single isomer, unassigned) [12b, 1-(3-chloro-5,6,7,8-tetrahydro-1,6,9-triaza-fluoren-9-yl)-2-pyridin-4-yl-propan-2-ol]
Percentage inhibition of ligand binding, Adrenergic α2A ([1]; compound at 0.1 μM, [3H]MK-912, repeat assays, each datapoint shown): 3%
Percentage inhibition of ligand binding, Adrenergic α2B [2, 9]: 21%
Percentage inhibition of ligand binding, Adrenergic α1B [3, 10]: 8%

Structure (SMILES): Cc1ccc2c(c1)c1c(n2CC(C)(O)c2cccnc2)CC(C)N(C)C1 (single isomer, unassigned) [II-146c, 2-(pyridin-3-yl)-1-(2,3,8-trimethyl-3,4-dihydro-1H-pyrido[4,3-b]indol-5(2H)-yl)propan-2-ol]
Percentage inhibition of ligand binding, Adrenergic α2A (0.1 μM) [1, 11]: 8%
Percentage inhibition of ligand binding, Adrenergic α2B (0.03 μM) [2, 5]: 42%
Percentage inhibition of ligand binding, Adrenergic α1B (0.1 μM) [3, 12]: 17%

Structure (SMILES): CN1Cc2c(n(CC(O)c3ccncc3)c3ncccc23)C(C)(C)C1 (single isomer, unassigned) [17b, 1-pyridin-4-yl-2-(6,8,8-trimethyl-5,6,7,8-tetrahydro-1,6,9-triaza-fluoren-9-yl)-ethanol]
Percentage inhibition of ligand binding, Adrenergic α2A [1, 8]: 9%
Percentage inhibition of ligand binding, Adrenergic α2B [2, 9]: 20%
Percentage inhibition of ligand binding, Adrenergic α1B [3, 10]: 16%

Structure (SMILES): CC(O)(Cn1c2c(c3cc(Cl)ccc31)CN(C1CCC1)CC2)c1cccnc1 (single isomer, unassigned) [II-118b]
Percentage inhibition of ligand binding, Adrenergic α2A (0.1 μM) [1, 11]: 5%
Percentage inhibition of ligand binding, Adrenergic α2B (0.03 μM) [2, 5]: −3%
Percentage inhibition of ligand binding, Adrenergic α1B (0.1 μM) [3, 12]: 11%

Structure (SMILES): Cc1ccc(CCn2c3c(c4c(Cl)ccc(Br)c42)CN(C)CC3)cn1 [II-252]
inhibition at 0.1 µM [1, 4]: 91%
inhibition at 0.03 µM [2, 6]: 1%
inhibition at 0.1 µM [3, 7]: -1%

Structure (SMILES): Cc1ccc2c(c1)c1c(n2CC(N)c2ccncc2)CC2CCC1N2C (single isomer, unassigned) [155b]
Percentage inhibition of ligand binding, Adrenergic α2A (0.1 μM) [1, 11]: 5%
Percentage inhibition of ligand binding, Adrenergic α2B (0.03 μM) [2, 5]: 5%
Percentage inhibition of ligand binding, Adrenergic α1B (0.1 μM) [3, 12]: 1%

Structure (SMILES): Cc1cnc2c(c1)c1c(n2CC(C)(O)c2cccnc2)CCN2CCCC12 (single isomer, unassigned) [26b]
Percentage inhibition of ligand binding, Adrenergic α2A [1, 8]: 12%
Percentage inhibition of ligand binding, Adrenergic α2B [2, 9]: 75% and 88%
inhibition at 0.1 µM ([2]; compound at 0.1 μM, [3H]Rauwolscine, repeat assays, each datapoint shown, read-out: Percentage inhibition of ligand binding, Adrenergic α2B): 100%
Ki [2]: 3.06 nM
Percentage inhibition of ligand binding, Adrenergic α1B [3, 10]: 15%

Structure (SMILES): Cc1ccc2c(c1)c1c(n2CC(O)c2ccc(F)cc2)CN(C)CC1 (single isomer, unassigned) [18b, 2-(2,6-dimethyl-1,2,3,4-tetrahydro-β-carbolin-9-yl)-1-(4-fluoro-phenyl)-ethanol]
Percentage inhibition of ligand binding, Adrenergic α2A [1, 8]: 32%
Percentage inhibition of ligand binding, Adrenergic α2B [2, 9]: 61%
Percentage inhibition of ligand binding, Adrenergic α1B [3, 10]: 87%

Further lines, results first:

inhibition at 0.1 µM [1, 4]: 11%
Percentage inhibition of ligand binding, Adrenergic α2B (0.03 μM) [2, 5]: 63%
Ki [2]: 7.95 nM
inhibition at 0.03 µM [2, 6]: 53%
inhibition at 0.1 µM ([2]; read-out: Percentage inhibition of ligand binding, Adrenergic α2B (0.1 μM), compound at 0.1 μM, [3H]Rauwolscine, repeat datapoints each shown): 90%
inhibition at 0.1 µM [3, 7]: 36%
Structure (SMILES): Cc1ccc2c(c1)c1c(n2CC(O)c2cnn(C)c2)CCN(C)C1 (single isomer, unassigned) [131b, 2-(1,2,3,4-tetrahydro-2,8-dimethylpyrido[4,3-b]indol-5-yl)-1-(1-methyl-1H-pyrazol-4-yl)ethanol]

inhibition at 0.1 µM [1, 4]: 40%
inhibition at 0.03 µM [2, 6]: 71%
inhibition at 0.1 µM [3, 7]: 22%
Structure (SMILES): Cc1ccc2c(c1)c1c(n2CC(C)(N=[N+]=[N-])c2cccnc2)CCN(C)C1 (centres unmarked) [V-3, 5-(2-azido-2-(pyridin-3-yl)propyl)-2,8-dimethyl-2,3,4,5-tetrahydro-1H-pyrido[4,3-b]indole]

Percentage inhibition of ligand binding, Adrenergic α2A [1, 8]: −4%
Percentage inhibition of ligand binding, Adrenergic α2B [2, 9]: 54%
inhibition at 0.1 µM ([3]; compound at 0.1 μM, [3H]Prazosin, repeat assays, each datapoint shown, read-out: Percentage inhibition of ligand binding, Adrenergic α1B): 23%
Structure (SMILES): CN1CCc2c(c3cccc(Cl)c3n2CC(O)c2ccncc2)C1 (single isomer, unassigned) [45a]

Percentage inhibition of ligand binding, Adrenergic α2A [1, 8]: 15%
Percentage inhibition of ligand binding, Adrenergic α2B [2, 9]: 22%
Percentage inhibition of ligand binding, Adrenergic α1B [3, 10]: 39%
Structure (SMILES): Cc1ccc2c(c1)c1c(n2CC(O)c2ccncc2)CN(C)CC1 (centres unmarked) [8a]

Percentage inhibition of ligand binding, Adrenergic α2A ([1]; 0.1 μM compound, 0.1 µM): 15%
Percentage inhibition of ligand binding, Adrenergic α2B ([2]; 0.03 μM compound): 65%
Percentage inhibition of ligand binding, Adrenergic α1B ([3]; 0.1 μM compound): 11%
Structure (SMILES): CNC(Cn1c2c(c3cc(C)ccc31)CN(C)CC2)c1ccc(F)cc1 (single isomer, unassigned) [II-12b, 2-(2,8-dimethyl-3,4-dihydro-1H-pyrido[4,3-b]indol-5(2H)-yl)-1-(4-fluorophenyl)-N-methyl ethanamine]

Percentage inhibition of ligand binding, Adrenergic α2A [1, 8]: 5%
Percentage inhibition of ligand binding, Adrenergic α2B [2, 9]: 35%
Percentage inhibition of ligand binding, Adrenergic α1B [3, 10]: 33%
Structure (SMILES): Cc1ccc2c(c1)c1c(n2CC(O)c2ccncc2)CC2CCCN2C1 (single isomer, unassigned) [76c]

inhibition at 0.1 µM [1, 4]: 7%
inhibition at 0.03 µM [2, 6]: 53%
inhibition at 0.1 µM [3, 7]: 57%
Structure (SMILES): Cc1cnc2c(c1)c1c(n2CCc2ccncc2)CCN(C)C1 [II-240]

inhibition at 0.1 µM [1, 13]: 7%
inhibition at 0.03 µM [2, 14]: 78%
inhibition at 0.1 µM [3, 15]: 30%
Structure (SMILES): Cc1ccc2c(c1)c1c(n2CC(NC2CCCC2)c2ccncc2)CCN(C)C1 (centres unmarked) [II-9, cyclopentyl-[2-(2,8-dimethyl-1,2,3,4-tetrahydro-pyrido[4,3-b]indol-5-yl)-1-pyridin-4-yl-ethyl]-amine]

inhibition at 0.1 µM [1, 13]: 9%
inhibition at 0.03 µM [2, 14]: 73%
inhibition at 0.1 µM [3, 15]: 9%
Structure (SMILES): Cc1ccc2c(c1)c1c(n2CC(NC2CCC2)c2ccncc2)CCN(C)C1 (centres unmarked) [II-13, cyclobutyl-[2-(2,8-dimethyl-1,2,3,4-tetrahydro-pyrido[4,3-b]indol-5-yl)-1-pyridin-4-yl-ethyl]-amine]
